Measured values: patent publication US20190111103A1, “NOVEL PEPTIDE OR SALT THEREOF, COMPOSITION FOR ENHANCING PROLIFERATION OF FIBROBLAST CELLS AND COMPOSITION FOR ENHANCING ELASTIN PRODUCTION IN FIBROBLAST CELLS AND CHONDROCYTES CONTAINING THE SAME” (Hayashikane Sangyo Co., Ltd., priority 2017, published 2019)

Experiments:
[1] = tested on: human skin fibroblast cells; conditions: known from the literature (positive control); cited from earlier work
[2] = tested on: normal human skin fibroblast cells; assay: Proliferation test of normal human skin fibroblast cells; format: cell-based; conditions: similar experiment with the hydrolysate
Method: Skin fibroblast cells cultured in a culture flask was seeded in a 96-well plate at 3,500 cells/cm^2 ([…], medium: 10% FBS DMEM). After incubating for 24 hours at 37° C. under 5% CO2 condition, the liquid medium in the wells was removed, replaced with DMEM containing 0.5% FBS and incubated for 24 hours under similar conditions. The liquid medium in the wells was removed and the wells were washed with DPBS, after which DPBS was removed. Solutions of predetermined concentrations of peptide Val-Pro-Gly-Gly (VPGG) and peptide Val-Pro-Gly-Ala (VPGA) were prepared using DMEM containing 0.5% FBS were prepared and 100 μL of the solution was added to each well. Fibroblast cells were incubated for 4 days at 37° C. under 5% CO2 condition and supernatant was recovered. The supernatant recovered was used for a measurement of amount of elastin production in Example 2. DMEM containing 0.5% FBS was added and cells were counted using cell counting kit-8 (10 μL/well) and a cell proliferation rate relative to the cell number obtained from the sample without adding the peptides.

[3] = tested on: human skin fibroblast cells; assay: Migration activity test of normal human skin fibroblast cells; format: cell-based; conditions: 20 hours, membrane inserts pore size 8 μm, absorbance at 560 nm
Method: Effect of peptide Val-Pro-Gly-Gly on a migration activity of fibroblast cells that relates to processes of recovery and regeneration of tissue and wound healing was investigated. To bottom of each well of 24-well plate of CytoSelect (registered trade mark) 24-well Cell Migration Assay Kit (Cell Biotics), DMEM medium (control), 500 μL of peptide Val-Pro-Gly-Gly or peptide Val-Pro-Gly (positive control: see “Elastin—Structure, Function and Pathology”, edited and written by Hiroyuki Ito, Elastin Study Group of Japan (not for sale), p. 124-137, 2008) dissolved in DMEM medium were added. Then, 300 μL of cell suspension of human skin fibroblast cells (P4 to 5) prepared by dispersing the cell in DMEM media (1×10^6 cells/mL) was added inside membrane inserts (pore size: 8 μm). The inserts were inserted in wells and incubated in a cell incubator at 37° C. for 20 hours (in preliminary examination, duration of incubation was also set to 6 hours). […] Cells were stained by adding 400 μL of cell stain liquid and staining for 10 minutes at room temperature. Then the inserts were washed with distilled water, dried and stain was confirmed by optical microscopic observation. […] of reaction mixture was placed in 96-well plate and absorbance at 560 nm was measured using a plate reader.

[4] = tested on: normal human knee joint chondrocytes (NHAc-kn); assay: Elastin production test in normal human knee joint chondrocytes (dot blot); format: cell-based
Method: Normal human knee joint chondrocytes (NHAc-kn: 1.0×10^5 cells/mL) were seeded in a 24-well plate (900 μL/well, medium: CBM+0.5% FBS) and incubated under humidification condition at 37° C. in 5% CO2 atmosphere for 48 hours. The medium was exchanged and peptide VPGG and peptide VP was added (100 μL/well, final concentration: 0 to 5000 nM) and incubated under humidification condition at 37° C. in 5% CO2 atmosphere for 48 hours. From the cell culture thus obtained, supernatant was collected and dot-blotted onto a PVDF membrane. After blocking with PBST containing 5% skim milk, the membrane was washed with PBST. The membrane was reacted with rabbit anti-elastin antibody as a primary antibody, washed with PBST and reacted with HRP conjugate goat […] as a secondary antibody and washed with PBST. The membrane was reacted with a detection reagent ImmunoStar (FUJIFILM Wako Pure Chemical Corporation) and the amount of elastin production was estimated based on intensities of signals obtained.

Val-Pro-Gly
effect for promoting cell migration [1]: known to have the effect for promoting cell migration

Val-Pro-Gly-Gly (VPGG; printed: Val-Pro-Gly-Gly)
cell proliferation rate compared with hydrolysate of elastin from bonitos bulbus arteriosus [2]: higher cell proliferation rate | effect for promoting cell migration compared with peptide Val-Pro-Gly (positive control) [3]: significantly higher effect for promoting cell migration

Val-Pro
effect on the elastin production in the chondrocytes [4]: promoting effect

Val-Pro-Gly-Ala (VPGA; printed: Val-Pro-Gly-Ala)
cell proliferation rate compared with hydrolysate of elastin from bonitos bulbus arteriosus [2]: higher cell proliferation rate
